In ChEMBL document CHEMBL1201862, “PubChem BioAssay data set” (2004):
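In this assay, cells in 96-well plates receive the compound at five concentrations for 48 hours. Endpoints are linearly interpolated between the surrounding concentrations. At the GI50, growth is halved.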 Activity calls are given as the source filed them. No stated cut-off is given here; in the data, active = GI50 up to about 1.1 µM and inactive = higher.

What was measured:
Test in all cases: NCI-60 cell line screen, 48 h
A549 = tested on: A549
CCRF-CEM = tested on: CCRF-CEM
COLO 205 = tested on: COLO 205
DU-145 = tested on: DU-145
EKVX = tested on: EKVX
HCT-15 = tested on: HCT-15
HL-60 = tested on: HL-60
K562 = tested on: K562
M14 = tested on: M14
MDA-MB-435 = tested on: MDA-MB-435
NCI-H460 = tested on: NCI-H460
OVCAR-4 = tested on: OVCAR-4
SF-268 = tested on: SF-268
SF-295 = tested on: SF-295
SK-MEL-28 = tested on: SK-MEL-28
SK-MEL-2 = tested on: SK-MEL-2
SK-OV-3 = tested on: SK-OV-3
SNB-75 = tested on: SNB-75
HOP-62 = tested on: HOP-62
SN12C = tested on: SN12C

SMILES | GI50 (A549) | GI50 (CCRF-CEM) | GI50 (COLO 205) | GI50 (DU-145) | GI50 (EKVX) | GI50 (HCT-15) [µM] | GI50 (HL-60) | GI50 (K562) | GI50 (M14) | GI50 (MDA-MB-435) | GI50 (NCI-H460) | GI50 (OVCAR-4) | GI50 (SF-268) | GI50 (SF-295) | GI50 (SK-MEL-28) | GI50 (SK-MEL-2) | GI50 (SK-OV-3) | GI50 (SNB-75) | GI50 (HOP-62) | GI50 (SN12C)
CC1=CC(c2ccccc2)n2c(nc3cc4ccccc4cc32)N1 (stereo not given) | > 100 µM (inactive) | > 100 µM (inactive) | > 100 µM (inactive) | > 100 µM (inactive) | > 100 µM (inactive) | > 100 | > 100 µM (inactive) | > 100 µM (inactive) | > 100 µM (inactive) | > 100 µM (inactive) | > 100 µM (inactive) | > 100 µM (inactive) | > 100 µM (inactive) | > 100 µM (inactive) | > 100 µM (inactive) | > 100 µM (inactive) | > 100 µM (inactive) | > 100 µM (inactive) |  | 
CC1S/C(=N\N=C2/C(=O)Nc3ccc(Br)cc32)N(C2CCCCC2)C1=O (stereo not given) | 3.41 µM (inactive) | 39.8 µM (inactive) | 3.85 µM (inactive) | 3.73 µM (inactive) | 4.16 µM (inactive) | 3.87 | 5.85 µM (inactive) | > 100 µM (inactive) | 4.29 µM (inactive) | 5.37 µM (inactive) | 3.96 µM (inactive) | 1.89 µM (inactive) | 6.38 µM (inactive) | 3.89 µM (inactive) | 6.08 µM (inactive) | 1.45 µM (inactive) | 2.84 µM (inactive) |  | 2.09 µM (inactive) | 2.93 µM (inactive)
CC1(C)OCC(/C=C\C(O)CC2(C)OCCO2)CO1 (stereo not given) | > 100 µM (inactive) |  | > 100 µM (inactive) | > 100 µM (inactive) | > 100 µM (inactive) | > 100 | > 100 µM (inactive) | > 100 µM (inactive) | > 100 µM (inactive) | > 100 µM (inactive) | > 100 µM (inactive) | > 100 µM (inactive) | > 100 µM (inactive) | > 100 µM (inactive) | > 100 µM (inactive) | > 100 µM (inactive) | > 100 µM (inactive) | > 100 µM (inactive) | > 100 µM (inactive) | > 100 µM (inactive)
Cc1ccc(-c2n[nH]c(=O)[nH]2)cc1 | > 100 µM (inactive) | > 100 µM (inactive) | > 100 µM (inactive) | > 100 µM (inactive) | 45.8 µM (inactive) | > 100 | > 100 µM (inactive) | > 100 µM (inactive) | > 100 µM (inactive) | > 100 µM (inactive) | > 100 µM (inactive) | > 100 µM (inactive) | > 100 µM (inactive) | > 49 µM (inactive) | > 100 µM (inactive) | > 100 µM (inactive) |  | > 100 µM (inactive) | > 100 µM (inactive) | > 100 µM (inactive)
Nc1c2ccccc2nc2c1ccc1ncccc12 | 21.9 µM (inactive) | 6.78 µM (inactive) | 20.3 µM (inactive) | 28.2 µM (inactive) | 27.1 µM (inactive) | 14.2 | 4.32 µM (inactive) | 12.5 µM (inactive) | 19.4 µM (inactive) | 27.8 µM (inactive) | 5.83 µM (inactive) | 17.9 µM (inactive) |  | 21.8 µM (inactive) | 33.7 µM (inactive) | 18.6 µM (inactive) | 30.5 µM (inactive) | 22.3 µM (inactive) |  | 21.1 µM (inactive)
CS/C(=N\Nc1cnc2ccccc2n1)NS(=O)(=O)c1cc(C)c(Cl)cc1Cl | > 100 µM (inactive) | > 100 µM (inactive) | > 100 µM (inactive) | > 100 µM (inactive) | 29 µM (inactive) | > 100 | 88.7 µM (inactive) | > 100 µM (inactive) | > 100 µM (inactive) | > 100 µM (inactive) | > 100 µM (inactive) | > 100 µM (inactive) | > 100 µM (inactive) | > 100 µM (inactive) | > 100 µM (inactive) |  | > 100 µM (inactive) | 43.2 µM (inactive) | > 100 µM (inactive) | > 100 µM (inactive)
C[C@H](CC[C@@H](O)C(C)(C)O)[C@H]1CC[C@@]2(C)[C@@H]3CC=C4[C@@H](CC[C@H](O)C4(C)C)[C@]3(C)C(=O)C[C@]12C [BRYODULCOSIGENIN] | 27.7 µM (inactive) | 16.5 µM (inactive) | 11.1 µM (inactive) | > 50 µM (inactive) | 21.2 µM (inactive) | 19.2 | 24.5 µM (inactive) | 19.6 µM (inactive) | 29 µM (inactive) | 37.6 µM (inactive) | 31.1 µM (inactive) | > 50 µM (inactive) |  | > 50 µM (inactive) | 24.2 µM (inactive) | 40.7 µM (inactive) | 42.5 µM (inactive) |  | > 50 µM (inactive) | 28.6 µM (inactive)
